Among the data in ChEMBL document CHEMBL3132787, “Polyhydroxylated pyrrolidine and 2-oxapyrrolizidine as glycosidase inhibitors” (Medchemcomm, 2013) are Activity and Ki values, retold here.

In one test the test system is Canavalia ensiformis. Put plainly: Inhibition of jack bean alpha-mannosidase using p-nitrophenyl glycoside as substrate assessed as residual activity at 1 mM after 25 mins by spectrophotometer analysis.
The test system of another test is Helix pomatia. The test can be described thus: Inhibition of Helix pomatia beta-mannosidase using p-nitrophenyl glycoside as substrate assessed as residual activity at 1 mM after 25 mins by spectrophotometer analysis.
Test [1] has as its target Alpha-galactosidase (Coffea arabica) (UniProt Q42656). Put plainly: Inhibition of green coffee bean alpha-galactosidase using p-nitrophenyl glycoside as substrate assessed as residual activity at 1 mM after 25 mins by spectrophotometer analysis.
The subject of a further test is Prunus dulcis. Put plainly: Inhibition of sweet almond beta-glucosidase using p-nitrophenyl glycoside as substrate assessed as residual activity at 1 mM after 25 mins by spectrophotometer analysis.
Test [2] deals with Beta-galactosidase (Escherichia coli) (UniProt Q8VNN2). Put plainly: Inhibition of Escherichia coli beta-galactosidase using p-nitrophenyl glycoside as substrate assessed as residual activity at 1 mM after 25 mins by spectrophotometer analysis.
Chain of Beta-galactosidase (Escherichia coli) (Q8VNN2 whole entry, looked up): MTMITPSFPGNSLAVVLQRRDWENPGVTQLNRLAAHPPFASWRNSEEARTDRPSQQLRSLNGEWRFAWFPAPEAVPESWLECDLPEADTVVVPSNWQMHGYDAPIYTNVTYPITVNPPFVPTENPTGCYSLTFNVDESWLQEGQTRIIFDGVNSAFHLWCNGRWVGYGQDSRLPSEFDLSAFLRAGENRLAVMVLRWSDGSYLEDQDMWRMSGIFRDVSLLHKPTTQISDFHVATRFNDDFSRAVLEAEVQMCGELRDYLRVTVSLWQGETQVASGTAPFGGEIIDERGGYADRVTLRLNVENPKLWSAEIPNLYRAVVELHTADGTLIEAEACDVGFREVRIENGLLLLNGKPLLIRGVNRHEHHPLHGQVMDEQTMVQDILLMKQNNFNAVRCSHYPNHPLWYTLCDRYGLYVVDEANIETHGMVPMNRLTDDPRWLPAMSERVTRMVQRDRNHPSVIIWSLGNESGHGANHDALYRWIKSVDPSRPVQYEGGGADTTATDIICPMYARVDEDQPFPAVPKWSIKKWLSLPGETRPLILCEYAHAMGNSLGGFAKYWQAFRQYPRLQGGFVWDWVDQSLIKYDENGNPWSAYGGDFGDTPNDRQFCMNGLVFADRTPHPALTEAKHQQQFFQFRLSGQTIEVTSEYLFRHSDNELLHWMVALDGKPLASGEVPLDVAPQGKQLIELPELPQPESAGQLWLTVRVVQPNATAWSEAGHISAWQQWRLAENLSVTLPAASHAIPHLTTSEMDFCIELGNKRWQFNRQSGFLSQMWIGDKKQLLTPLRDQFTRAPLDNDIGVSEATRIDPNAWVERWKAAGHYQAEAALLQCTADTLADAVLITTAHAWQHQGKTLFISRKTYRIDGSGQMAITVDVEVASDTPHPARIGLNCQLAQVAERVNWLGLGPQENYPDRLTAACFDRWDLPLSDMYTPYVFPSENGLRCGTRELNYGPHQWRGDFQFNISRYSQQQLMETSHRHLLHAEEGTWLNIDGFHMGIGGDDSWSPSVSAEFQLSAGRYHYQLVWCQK
Test [3] concerns Geobacillus stearothermophilus. Put plainly: Inhibition of Bacillus stearothermophilus alpha-glucosidase using p-nitrophenyl glycoside as substrate assessed as residual activity at 1 mM after 25 mins by spectrophotometer analysis.
For another test, the target named is Alpha-galactosidase (Coffea arabica, UniProt Q42656). The test can be described thus: Competitive inhibition of green coffee bean alpha-galactosidase using p-nitrophenyl glycoside as substrate by Lineweaver-Burk plot analysis.
Chain of Alpha-galactosidase (Q42656 whole entry): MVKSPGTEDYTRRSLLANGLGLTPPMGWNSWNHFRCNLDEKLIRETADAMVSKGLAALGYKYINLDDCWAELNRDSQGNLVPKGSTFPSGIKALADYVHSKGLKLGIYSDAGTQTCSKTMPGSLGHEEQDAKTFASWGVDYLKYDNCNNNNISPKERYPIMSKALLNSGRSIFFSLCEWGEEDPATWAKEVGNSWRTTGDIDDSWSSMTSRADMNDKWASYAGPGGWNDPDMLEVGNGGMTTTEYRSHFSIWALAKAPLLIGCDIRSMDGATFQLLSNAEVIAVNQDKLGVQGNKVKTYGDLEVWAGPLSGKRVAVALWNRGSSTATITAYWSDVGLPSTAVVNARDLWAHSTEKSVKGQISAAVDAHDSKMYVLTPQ
The nature of test [4]: Competitive inhibition of sweet almond beta-glucosidase using p-nitrophenyl glycoside as substrate by Lineweaver-Burk plot analysis. Also noted: species or system Prunus dulcis.

Chain of Alpha-galactosidase (Coffea arabica) (Q42656 16-378 limits assumed): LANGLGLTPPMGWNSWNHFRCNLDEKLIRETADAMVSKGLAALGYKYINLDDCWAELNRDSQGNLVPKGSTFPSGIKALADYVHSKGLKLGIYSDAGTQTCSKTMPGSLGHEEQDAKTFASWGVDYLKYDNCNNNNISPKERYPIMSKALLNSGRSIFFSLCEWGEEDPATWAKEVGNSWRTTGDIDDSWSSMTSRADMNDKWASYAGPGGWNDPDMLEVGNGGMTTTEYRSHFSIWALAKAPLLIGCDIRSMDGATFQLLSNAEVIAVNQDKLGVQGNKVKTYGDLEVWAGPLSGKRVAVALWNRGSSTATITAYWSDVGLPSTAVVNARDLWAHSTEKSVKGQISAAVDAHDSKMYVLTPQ

For `O=P(O)(O)OC[C@@H]1C[C@H](O)[C@@H](CO)N1`, the Activity in the test with Canavalia ensiformis was determined as 76.8%; in the test on Helix pomatia it was 100%; in test [1] it was 91.9%; in the test with Prunus dulcis it was 96.1%; in test [2], 114%; in test [3], 97%.

Consider `O=C1OC[C@@H]2C[C@H](O)[C@@H](CO)N12`, for which the Activity is 72.2% in the test with Canavalia ensiformis; 98.7% with Helix pomatia; 5.4% in test [1]; 75.7% in the test on Prunus dulcis; 109% in test [2]; 39.1% in test [3]. On Alpha-galactosidase, the affinity corresponds to a Ki of 40.8 µM.

On to `O=C(NCCP(=O)(O)O)[C@@H]1C[C@H](O)[C@@H](CO)N1`, for which the Activity in the test on Canavalia ensiformis was determined as 83.9%; with Helix pomatia it was 93.7%; in test [1], 107%; in the test with Prunus dulcis, 83.6%; in test [2] it was 55.8%; in test [3], 97.1%.

Turning to `O=C(O)[C@@H]1C[C@H](O)[C@@H](CO)N1`, the Activity is 82% in the test with Canavalia ensiformis; 99.3% in the test with Helix pomatia; 95.2% in test [1]; 115% in the test on Prunus dulcis; 90.7% in test [2]; 110% in test [3].

As to `OC[C@@H]1C[C@H](O)[C@@H](CO)N1`, the Activity was 102% in the test on Canavalia ensiformis; 97% with Helix pomatia; 50.4% in test [1]; 1.7% with Prunus dulcis; 53.5% in test [2]; 12.8% in test [3]. Further, the Ki in test [4] turned out to be 29.2 µM.
